Literature values, collected in patent publication US20230404078A1, “HERBICIDAL COMBINATIONS” (priority 2020, published 2023).

Experiments:
broadleaf weeds = details: Clethodim itself
wheat = details: in vivo

SMILES	efficacy against broadleaf weeds (broadleaf weeds)	injury in the wheat crop (wheat)	visual injury in wheat (wheat)
CCSC(C)CC1CC(=O)C(/C(CC)=N/OC/C=C/Cl)=C(O)C1 (stereo not drawn) [Clethodim, 2-[1-[[[(2£)-3-chloro-2-propen-l-yl]oxy]imino]propyl]-5-[2-(ethylthio)propyl]-3-hydroxy-2-cyclohexen-1-one]	no efficacy		
COc1cc(OC)n2nc(NS(=O)(=O)c3c(C(F)(F)F)ccnc3OC)nc2n1 [Pyroxsulam]		greater than 10%	up to 10%
